# According to ChEMBL document CHEMBL5465560, “Selectivity Literature for EUbOPEN Chemogenomic Library” (2024):
# Residue numbers refer to the chain shown, from its start.
# Tests used:
# Conditions in all cases: at 1 µM
# [1] = molecular target: T1, Ankyrin repeat and protein kinase domain-containing protein 1 (Homo sapiens) (UniProt Q8NFD2); experiment: Selectivity interaction (KinomeScan (DiscoverX)) EUB0001049a ANKK1
# T1 sequence (whole entry): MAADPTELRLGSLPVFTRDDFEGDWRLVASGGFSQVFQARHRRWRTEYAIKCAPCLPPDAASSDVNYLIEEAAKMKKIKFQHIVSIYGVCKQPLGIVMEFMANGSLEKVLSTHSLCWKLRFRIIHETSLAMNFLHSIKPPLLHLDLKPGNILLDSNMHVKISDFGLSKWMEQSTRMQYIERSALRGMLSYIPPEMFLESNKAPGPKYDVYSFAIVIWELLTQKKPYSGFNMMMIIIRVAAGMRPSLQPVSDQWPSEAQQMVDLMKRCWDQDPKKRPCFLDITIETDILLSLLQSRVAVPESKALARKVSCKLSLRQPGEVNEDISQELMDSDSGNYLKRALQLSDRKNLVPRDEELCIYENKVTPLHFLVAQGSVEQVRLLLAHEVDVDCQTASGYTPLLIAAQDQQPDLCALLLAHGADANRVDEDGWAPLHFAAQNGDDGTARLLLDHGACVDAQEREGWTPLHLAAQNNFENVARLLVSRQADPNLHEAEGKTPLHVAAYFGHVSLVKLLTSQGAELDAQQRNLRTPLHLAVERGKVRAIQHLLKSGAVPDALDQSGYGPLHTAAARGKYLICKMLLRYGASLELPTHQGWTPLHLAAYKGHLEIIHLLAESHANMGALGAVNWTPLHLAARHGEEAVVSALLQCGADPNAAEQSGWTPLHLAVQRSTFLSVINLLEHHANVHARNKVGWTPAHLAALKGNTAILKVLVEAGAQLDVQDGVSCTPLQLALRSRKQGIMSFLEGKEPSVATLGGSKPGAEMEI
# [2] = tested on: T2, Receptor-type tyrosine-protein kinase FLT3 (Homo sapiens), P36888 [R834Q]; experiment: (§1) Selectivity interaction (Ambit KINOMEscan and KiNATiv profiling in Jurkat cells) EUB0000090b FLT3; assay type: cell-based
# T2 sequence (whole entry): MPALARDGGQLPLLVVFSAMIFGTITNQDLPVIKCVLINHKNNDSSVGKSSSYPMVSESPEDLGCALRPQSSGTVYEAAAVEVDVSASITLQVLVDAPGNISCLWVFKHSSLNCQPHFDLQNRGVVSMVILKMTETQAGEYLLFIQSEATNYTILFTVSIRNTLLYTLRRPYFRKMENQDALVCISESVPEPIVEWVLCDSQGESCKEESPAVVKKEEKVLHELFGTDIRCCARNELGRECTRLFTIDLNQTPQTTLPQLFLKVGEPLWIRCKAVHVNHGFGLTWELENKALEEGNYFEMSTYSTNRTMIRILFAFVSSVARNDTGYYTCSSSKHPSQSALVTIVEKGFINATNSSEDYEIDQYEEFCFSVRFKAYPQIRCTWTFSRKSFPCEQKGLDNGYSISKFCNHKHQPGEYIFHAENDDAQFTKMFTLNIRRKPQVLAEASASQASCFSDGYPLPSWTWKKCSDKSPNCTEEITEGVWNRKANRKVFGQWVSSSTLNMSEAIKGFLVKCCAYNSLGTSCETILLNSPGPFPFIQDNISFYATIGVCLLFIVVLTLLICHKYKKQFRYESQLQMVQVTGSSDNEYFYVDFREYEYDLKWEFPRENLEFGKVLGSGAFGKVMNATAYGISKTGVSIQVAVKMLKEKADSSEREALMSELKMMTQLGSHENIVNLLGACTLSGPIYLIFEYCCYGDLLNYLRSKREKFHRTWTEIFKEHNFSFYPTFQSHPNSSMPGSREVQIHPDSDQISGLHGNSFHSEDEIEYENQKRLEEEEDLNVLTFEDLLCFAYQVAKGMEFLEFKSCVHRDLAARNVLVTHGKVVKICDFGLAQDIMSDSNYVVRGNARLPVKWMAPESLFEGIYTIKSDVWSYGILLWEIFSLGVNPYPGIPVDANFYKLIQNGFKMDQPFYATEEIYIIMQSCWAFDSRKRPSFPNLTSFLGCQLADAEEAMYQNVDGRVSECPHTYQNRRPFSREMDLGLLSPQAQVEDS
# [3] = molecular target: Receptor-type tyrosine-protein kinase FLT3 (Homo sapiens) (UniProt P36888); experiment: as §1; assay type: cell-based
# [4] = tested on: T3, Receptor-type tyrosine-protein kinase FLT3 (Homo sapiens), P36888 [K663Q]; experiment: as §1; assay type: cell-based
# T3 sequence (whole entry): T2 sequence (whole entry) with K663Q, Q834R
SMILES,% of control [1],% of control [2],% of control [3],% of control [4]
COc1cc(Nc2nc(C)cc(-c3cnn4nc(OC)ccc34)n2)cc(C(F)(F)F)c1,70%,–,–,–
CN(C)C/C=C/C(=O)Nc1ccc(C(=O)N2CCCC(Nc3ncc(Cl)c(-c4c[nH]c5ccccc45)n3)C2)cc1 (centres undefined),–,92%,94%,84%
